Values of other authors, collected in publication PMC9788431, “Combination of Docking-Based and Pharmacophore-Based Virtual Screening Identifies Novel Agonists That Target the Urotensin Receptor” (Molecules, 2022).
Several values for one entry are separate records, joined by “and”; a condition that tells them apart may be missing. Equal values may be shown once. Non-standard residues stand in square brackets, D forms with d. Residues, ends and D or L forms follow the SMILES beside them.

Target: T1, UT receptor (Homo sapiens, UniProt Q9UKP6)
T1 construct: SNAP-tag; expressed in transfected cells; host or cells: 293A8 (HEK293A stably transfected with the UT receptor); inferred, the calcium-assay paragraph names no cells
T1 sequence (Q9UKP6 1-389): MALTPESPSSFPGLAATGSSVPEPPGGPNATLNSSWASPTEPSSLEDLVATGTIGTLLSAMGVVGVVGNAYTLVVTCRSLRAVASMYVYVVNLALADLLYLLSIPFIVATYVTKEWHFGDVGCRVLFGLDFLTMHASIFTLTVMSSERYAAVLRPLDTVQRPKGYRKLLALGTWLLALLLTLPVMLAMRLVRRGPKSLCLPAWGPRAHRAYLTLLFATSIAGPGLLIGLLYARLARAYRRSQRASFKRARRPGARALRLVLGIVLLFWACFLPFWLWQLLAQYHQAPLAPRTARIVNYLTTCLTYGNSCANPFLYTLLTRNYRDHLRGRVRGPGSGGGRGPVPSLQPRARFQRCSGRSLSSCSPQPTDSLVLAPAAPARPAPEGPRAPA
Details: agonist; Table S1 benchmarking ligands; ref ChEMBL database and others; cited from earlier work

Compound	EC50
CC(C)[C@H](NC(=O)[C@H](CS)NC(=O)[C@H](Cc1ccc(O)cc1)NC(=O)[C@H](CCCCN)NC(=O)[C@H](Cc1c[nH]c2ccccc12)NC(=O)[C@H](Cc1ccccc1)NC(=O)[C@@H](N)CS)C(=O)O [CHEMBL53181] (H-CFWKYCV-OH)	1.8 nM
CN(C)CCC(OC(=O)Nc1ccc(C(F)(F)F)cc1)c1ccc(Cl)cc1 (stereo not shown) [CHEMBL203051]	251 nM
CN(C)CCC(NC(=O)c1ccc(Oc2ccccc2)cc1)c1ccc(Cl)cc1 (stereo not shown) [CHEMBL203626]	66.1 nM
CN(C)CCC(OC(=O)Nc1ccc2ccccc2c1)c1ccc(Cl)cc1 (stereo not shown) [CHEMBL203937]	525 nM
CN(C)CCC(NC(=O)c1ccc(C(F)(F)F)cc1)c1ccc(Cl)cc1 (stereo not shown) [CHEMBL204988]	77.6 nM
CN(C)CCC(NC(=O)Nc1ccc(C(C)(C)C)cc1)c1ccc(Cl)cc1 (stereo not shown) [CHEMBL205681]	275 nM
CN(C)CCC(OC(=O)c1ccc(-c2ccccc2)cc1)c1ccc(Cl)cc1 (stereo not shown) [CHEMBL205991]	525 nM
CN(C)CCC(NC(=O)Nc1ccc2ccccc2c1)c1ccc(Cl)cc1 (stereo not shown) [CHEMBL206551]	288 nM
CN(C)CCC(NC(=O)Nc1ccc(-c2ccccc2)cc1)c1ccc(Cl)cc1 (stereo not shown) [CHEMBL206811]	145 nM
Cc1cc(C)c(C(=O)OC(CCN(C)C)c2ccc(Cl)cc2)cc1C (stereo not shown) [CHEMBL206832]	468 nM
CN(C)CC[C@H](NC(=O)c1ccc2ccccc2c1)c1ccc(Cl)cc1 [CHEMBL207783]	407 nM
CN(C)CC[C@H](NC(=O)c1ccc(-c2ccccc2)cc1)c1ccc(Cl)cc1 [CHEMBL207823]	32.4 nM
CC(C)[C@H](NC(=O)[C@H](CS)NC(=O)[C@H](Cc1ccc(O)cc1)NC(=O)[C@H](CCCCN)NC(=O)[C@H](Cc1c[nH]c2ccccc12)NC(=O)[C@H](Cc1ccccc1)NC(=O)[C@H](CS)NC(=O)[C@H](CC(=O)O)NC(=O)[C@H]1CCCN1)C(=O)O [CHEMBL216349] (H-[dP]DCFWKYCV-OH)	3.6 nM
CN(C)CCC(NC(=O)/C=C/c1ccc(C(F)(F)F)cc1)c1ccc(Cl)cc1 (stereo not shown) [CHEMBL228470]	129 nM
CN(C)CCC(NC(=O)C#Cc1ccccc1)c1ccc(Cl)cc1 (stereo not shown) [CHEMBL228471]	398 nM
CN(C)CCC(NC(=O)CCc1ccccc1)c1ccc2ccccc2c1 (stereo not shown) [CHEMBL229709]	603 nM
CN(C)CCC(NC(=O)CCc1ccc(C(F)(F)F)cc1)c1ccc2ccccc2c1 (stereo not shown) [CHEMBL229710]	372 nM
CN(C)CCC(NC(=O)/C=C/c1ccc(C(F)(F)F)cc1)c1ccc2ccccc2c1 (stereo not shown) [CHEMBL229713]	135 nM
COc1ccc(/C=C/C(=O)NC(CCN(C)C)c2ccc3ccccc3c2)cc1 (stereo not shown) [CHEMBL229714]	380 nM
CN(C)CCC(NC(=O)C#Cc1ccccc1)c1ccc2ccccc2c1 (stereo not shown) [CHEMBL229764]	457 nM
Cc1ccc(C(CCN(C)C)NC(=O)/C=C/c2ccc(C(F)(F)F)cc2)cc1 (stereo not shown) [CHEMBL229923]	437 nM

Compound	EC50
NCCCC[C@H](NC(=O)[C@H](Cc1c[nH]c2ccccc12)NC(=O)[C@H](Cc1ccccc1)NC(=O)[C@@H](N)CS)C(=O)N[C@@H](Cc1ccc(O)cc1)C(=O)N[C@@H](CS)C(N)=O [CHEMBL298803] (H-CFWKYC-NH2)	2.3 nM
CN(C)CCC(NC(=O)/C=C/c1ccccc1)c1ccc(Cl)cc1 (stereo not shown) [CHEMBL374817]	427 nM
Cc1cc2c(cc1C)C(=O)OC(CCN(C)C)(c1ccc(Cl)cc1)C2 (stereo not shown) [CHEMBL380346]	135 nM
CN(C)CCC(OC(=O)Nc1ccc(Oc2ccccc2)cc1)c1ccc(Cl)cc1 (stereo not shown) [CHEMBL383326]	191 nM
CN(C)CCC(NC(=O)Nc1ccc(Oc2ccccc2)cc1)c1ccc(Cl)cc1 (stereo not shown) [CHEMBL383698]	110 nM
C[C@@H](O)[C@H](NC(=O)[C@@H](N)CCC(=O)O)C(=O)N1CCC[C@@H]1C(=O)N[C@@H](CC(=O)O)C(=O)N[C@@H](CS)C(=O)N[C@@H](Cc1ccccc1)C(=O)N[C@@H](Cc1c[nH]c2ccccc12)C(=O)N[C@@H](CCCCN)C(=O)N[C@@H](Cc1ccc(O)cc1)C(=O)N[C@@H](CS)C(=O)O [CHEMBL385616] (H-ET[dP]DCFWKYC-OH)	1.8 nM
CC(C)[C@H](NC(=O)[C@H](CS)NC(=O)[C@H](Cc1ccc(O)cc1)NC(=O)[C@H](CCCCN)NC(=O)[C@@H](Cc1c[nH]c2ccccc12)NC(=O)[C@H](Cc1ccccc1)NC(=O)[C@H](CS)NC(=O)[C@H](CC(=O)O)NC(=O)[C@H]1CCCN1C(=O)[C@@H](NC(=O)[C@@H](N)CCC(=O)O)[C@@H](C)O)C(=O)O [CHEMBL385962]	3.8 nM
COc1ccc(/C=C/C(=O)NC(CCN(C)C)c2ccc(Cl)cc2)cc1 (stereo not shown) [CHEMBL387661]	513 nM
CN(C)CCC(NC(=O)/C=C/c1ccccc1)c1ccc2ccccc2c1 (stereo not shown) [CHEMBL387694]	589 nM
CN(C)CCC(NC(=O)Cc1ccc(C(F)(F)F)cc1)c1ccc2ccccc2c1 (stereo not shown) [CHEMBL390792]	575 nM
CC(C)[C@H](NC(=O)[C@H](CS)NC(=O)[C@H](Cc1ccc(O)cc1)NC(=O)[C@H](CCCCN)NC(=O)[C@H](Cc1c[nH]c2ccccc12)NC(=O)[C@H](Cc1ccccc1)NC(=O)[C@H](CS)NC(=O)[C@H](CC(=O)O)NC(=O)[C@H]1CCCN1C(=O)[C@@H](NC(=O)[C@@H](N)CCC(=O)O)[C@@H](C)O)C(=O)O [CHEMBL408106]	2.5 nM
CC(C)[C@H](NC(=O)[C@H](CS)NC(=O)[C@H](Cc1ccc(O)cc1)NC(=O)[C@H](CCCCN)NC(=O)[C@H](Cc1c[nH]c2ccccc12)NC(=O)[C@H](CS)NC(=O)[C@H](CC(=O)O)NC(=O)[C@H]1CCCN1C(=O)[C@@H](NC(=O)[C@@H](N)CCC(=O)O)[C@@H](C)O)C(=O)O [CHEMBL412753] (H-ET[dP]DCWKYCV-OH)	53 nM
CC(C)[C@H](NC(=O)[C@H](CS)NC(=O)[C@H](Cc1ccc(O)cc1)NC(=O)[C@H](CCCCN)NC(=O)[C@H](Cc1c[nH]c2ccccc12)NC(=O)[C@H](Cc1ccccc1)NC(=O)[C@H](CS)NC(=O)[C@@H](N)CC(=O)O)C(=O)O [CHEMBL414256] (H-DCFWKYCV-OH)	3 nM
CN(C)CCC(NC(=O)Nc1ccc(C(F)(F)F)cc1)c1ccc(Cl)cc1 (stereo not shown) [CHEMBL425592]	117 nM
CC(C)[C@H](NC(=O)[C@H](CS)NC(=O)[C@H](Cc1ccc(O)cc1)NC(=O)[C@H](CCCCN)NC(=O)[C@H](Cc1c[nH]c2ccccc12)NC(=O)[C@H](Cc1ccccc1)NC(=O)[C@H](CS)NC(=O)[C@H](CC(=O)O)NC(=O)[C@H]1CCCN1C(=O)[C@@H](N)[C@@H](C)O)C(=O)O [CHEMBL427632] (H-T[dP]DCFWKYCV-OH)	2.4 nM
CN(C)CCC1(c2ccc(Cl)cc2)Cc2ccccc2C(=O)O1 (stereo not shown) [CHEMBL535141]	251 nM and 316 nM
CN(C)CCC(NC(=O)c1ccc(-c2ccc3ccccc3c2)cc1)c1ccc(Cl)cc1 (stereo not shown) [CHEMBL572391]	309 nM
Cc1ccc(C(CCN(C)C)NC(=O)c2cccc(-c3ccccc3)c2)cc1 (stereo not shown) [CHEMBL572392]	813 nM
Cc1ccc(C(CCN(C)C)NC(=O)c2ccc(-c3ccccc3)cc2)cc1 (stereo not shown) [CHEMBL572398]	200 nM
CN(C)CCC(NC(=O)c1ccc(-c2ccc(Cl)cc2)cc1)c1ccc2ccccc2c1 (stereo not shown) [CHEMBL572439]	43.6 nM
CO[C@@H](C(=O)N[C@@H](CCN(C)C)c1ccc2ccccc2c1)c1ccccc1 [CHEMBL572454]	741 nM

Compound	EC50
O=C(NC(CCN1CCCCC1)c1ccc(Cl)cc1)c1ccc(-c2ccccc2)cc1 (stereo not shown) [CHEMBL572467]	661 nM
CN(C)CCC(NC(=O)c1ccc(-c2ccc(Cl)cc2)cc1)c1ccc(Cl)cc1 (stereo not shown) [CHEMBL572882]	75.9 nM
Cc1ccc(C(CCN(C)C)NC(=O)c2ccc(-c3ccc(Cl)cc3)cc2)cc1 (stereo not shown) [CHEMBL572883]	126 nM
CN(C)CC[C@H](NC(=O)c1ccc(-c2ccc(Cl)cc2)cc1)c1ccc2ccccc2c1 [CHEMBL573392]	22.9 nM
COc1ccc(-c2ccc(C(=O)NC(CCN(C)C)c3ccc(Cl)cc3)cc2)cc1 (stereo not shown) [CHEMBL573569]	74.1 nM
COc1ccc(-c2cccc(C(=O)NC(CCN(C)C)c3ccc4ccccc4c3)c2)cc1 (stereo not shown) [CHEMBL573574]	646 nM
CN(C)CCC(NC(=O)c1cccc(-c2ccc3ccccc3c2)c1)c1ccc(Cl)cc1 (stereo not shown) [CHEMBL573575]	363 nM
CN(C)CC[C@@H](NC(=O)c1ccc(-c2ccc(Cl)cc2)cc1)c1ccc2ccccc2c1 [CHEMBL573640]	457 nM
CN(C)CCC(NC(=O)c1ccc(-c2ccccc2)cc1)c1ccc2ccccc2c1 (stereo not shown) [CHEMBL574527]	120 nM
Cc1ccc(C(CCN(C)C)NC(=O)c2cccc(-c3ccc(Cl)cc3)c2)cc1 (stereo not shown) [CHEMBL574731]	646 nM
COc1ccc(-c2ccc(C(=O)NC(CCN(C)C)c3ccc(C)cc3)cc2)cc1 (stereo not shown) [CHEMBL575629]	347 nM
Cc1ccc(C(CCN(C)C)NC(=O)c2ccc(-c3ccc4ccccc4c3)cc2)cc1 (stereo not shown) [CHEMBL575630]	813 nM
CN(C)CCC(NC(=O)c1cccc(-c2ccccc2)c1)c1ccc2ccccc2c1 (stereo not shown) [CHEMBL575819]	537 nM
CN(C)CCCC(NC(=O)c1ccc(-c2ccccc2)cc1)c1ccc(Cl)cc1 (stereo not shown) [CHEMBL576746]	316 nM
COc1ccc(-c2ccc(C(=O)NC(CCN(C)C)c3ccc4ccccc4c3)cc2)cc1 (stereo not shown) [CHEMBL578654]	105 nM
CN(C)CCC(NC(=O)c1ccc(-c2ccc3ccccc3c2)cc1)c1ccc2ccccc2c1 (stereo not shown) [CHEMBL578853]	525 nM
CN(C)CCC(NC(=O)c1cccc(-c2ccc(Cl)cc2)c1)c1ccc(Cl)cc1 (stereo not shown) [CHEMBL582835]	437 nM
CN(C)CCC(NC(=O)c1ccc(-c2ccccc2)cc1)c1ccc(Cl)cc1 (stereo not shown) [CHEMBL583981]	77.6 nM
NCCCC[C@@H]1NC(=O)[C@H](Cc2c[nH]c3ccccc23)NC(=O)[C@H](CO)NC(=O)CNC(=O)[C@@H]2CCCN2C(=O)[C@H](Cc2ccc(O)cc2)NC1=O [CHEMBL593612] (cyclo(GSWKYP))	8.51 nM
